From article PMC10740580, “Benzothiazole-Phthalimide Hybrids as Anti-Breast Cancer and Antimicrobial Agents” (Antibiotics, 2023)
≈ marks a conversion by molar mass, not a printed value.

What was measured:
[1] = tested on: Acinetobacter baumanii 19606; assay: Broth microdilution, A. baumanii 19606; assay type: cell-based; details: Acinetobacter baumannii, 24 h, 37 °C, read-out: MIC A.b. 19606
[2] = tested on: angiogenesis; details: previous study, reduced side effects compared to thalidomide; cited from earlier work
[3] = tested on: MDA-MB-231 cells; assay: MTT cell viability assay, MDA-MB-231; assay type: cell-based, human; details: mean ± SD; for IC50: Homo sapiens, MDA-MB-231, 72 h exposure
Protocol: The anticancer activity of the studied compounds (3a–h) was explored with regards to two human breast cancer cell lines, namely the estrogen receptor positive (ER+) MCF-7 cells and the triple negative MDA-MB-231 cells (ER-, PR-, and HER-2/Neu-). Cells were continuously exposed to the test substances for 72 h, after which their viability was assessed by means of the MTT assay. Table 2 lists the determined IC50 values for the investigated substances and the reference drug, thalidomide. […] Additionally, the same test for all the compounds has been performed on nonmalignant breast epithelial cells (MCF-10A) to ascertain their potential cytotoxicity.
The four cell lines used in this work (MCF-7, MDA-MB-231, MCF-10A, and 3T3-L1) were obtained from the American Type Culture Collection (ATCC, Manassas, VA, USA). All cell lines were maintained at 37 °C in a humidified atmosphere of 95% air and 5% CO2 and periodically screened for contamination. MCF-7, human breast cancer cells estrogen receptor (ER)-positive, and human breast cancer triple negative MDA-MB231 were grown in DMEM-F12 medium containing 2 mmol/L L-glutamine, 1 mg/mL penicillin–streptomycin, and 5% newborn calf serum (NCS) or 5% fetal bovine serum (FBS), respectively. MCF-10A human mammary epithelial cells were cultured in DMEM/F12 medium, supplemented with 5% horse serum (HS) (Eurobio, Les Ullis, Cedex, France), 100 U/mL penicillin/streptomycin, […], 20 ng/mL hEGF (human epidermal growth factor), […], and […] (Sigma-Aldrich, Milano, Italy). BALB/3T3 murine fibroblast cells were cultured in DMEM high glucose supplemented with 10% bovine calf serum (BCS), 1% L-glutamine, and 100 U/mL penicillin/streptomycin.
Cell viability was evaluated by means of the 3-(4,5-dimethylthiazol-2-y1)-2,5-diphenyltetra zolium bromide (MTT, Sigma-Aldrich, Milan, Italy) assay. On 48-well plates, cells were seeded, and they were cultured in complete medium. Before being treated, cells were starved in serum-free medium for 24 h to allow cell cycle synchronization. Subsequently, cells were exposed to increasing doses of each compound for 72 h in phenol-red-free media supplemented with 1% serum before fresh MTT was added to each well (final concentration: 0.5 mg/mL). Cells were lysed with DMSO after 2 h of incubation at 37 °C, and optical density at 570 nm was then determined with a microplate reader. Using GraphPad Prism 9 software (GraphPad Inc., San Diego, CA, USA), the mean absorbance for each sample was expressed as a percentage over the control and plotted vs. drug concentrations to establish the IC50 values. The given standard deviations (SDs) are indicative of three separate tests carried out in triplicate.

[4] = tested on: gram-negative bacteria; assay: Broth microdilution, gram-negative bacteria; assay type: cell-based; details: read-out: MIC against gram-negative bacteria
Description: (§1) Compounds 3a–h were examined in accordance with the Clinical Laboratory Standards Institute (CLSI) recommendations, by means of the broth microdilution method, against gram-positive bacteria (Staphylococcus aureus 25923, Staphylococcus aureus 29213, Staphylococcus aureus 43300, Enterococcus faecalis 29212) and gram-negative bacteria (Escherichia coli 25922, Klebsiella pneumoniae 13883, Pseudomonas aeruginosa 27853) belonging to the ATCC collection, using levofloxacin as a reference drug. Table 3 lists the results, expressed as MIC (µg/mL). […] The lack of activity observed for compound 3d could be conceivably due to its poor solubility in the culture medium containing the inoculum.
Following the recommendations of the CLSI (Clinical and Laboratory Standards Institute, 2012), the broth microdilution method was used to determine the in vitro minimum inhibitory concentrations (MICs, µg/mL).. The concentration of the investigated compounds was set to its highest value to create stock solutions. Then, the stock solutions were diluted 1:10 with Cation-Adjusted Mueller Hinton Broth (Oxoid, Milan, Italy). After that, a series of concentrations from 512 µg/mL to […] were obtained in the wells by performing two-fold serial dilutions in the appropriate test medium. The diluent used to create the stock solution was 100% DMSO. We used the following bacterial strains from the ATCC collection that were available as freeze-dried discs: gram-positive strains such as S. aureus ATCC 25923, 29213, and 43300, and E. faecalis ATCC 29212, and gram-negative ones such as E. coli ATCC 25922, K. pneuomoniae ATCC 13883, and P. aeruginosa ATCC 27853. To preserve the purity of cultures and to allow their reproducibility, cryovials of all microbial strains were set up in the medium and stored at −80 °C. Mueller Hinton Broth (MHB) was used to prepare pre-cultures of each bacterial strain, which were then incubated for 3–5 h at 37 °C. […]

[5] = tested on: gram-positive bacteria; assay: Broth microdilution, gram-positive bacteria; assay type: cell-based; details: read-out: MIC against gram-positive bacteria
Description: as §1
Following the recommendations of the CLSI (Clinical and Laboratory Standards Institute, 2012), the broth microdilution method was used to determine the in vitro minimum inhibitory concentrations (MICs, µg/mL).. The concentration of the investigated compounds was set to its highest value to create stock solutions. Then, the stock solutions were diluted 1:10 with Cation-Adjusted Mueller Hinton Broth (Oxoid, Milan, Italy). After that, a series of concentrations from 512 µg/mL to […] were obtained in the wells by performing two-fold serial dilutions in the appropriate test medium. The diluent used to create the stock solution was 100% DMSO. […]

MIC [1] [µg/mL] | IC50 [3] [µM] | IC50 MDA-MB-231 ([3]; 72 h exposure) | SMILES | antiangiogenic activity [2] | MIC [4] [µg/mL] | MIC [5] [µg/mL]
64 (≈ 228 µM) | 81.8 ± 0.8 | – | O=C1c2ccccc2C(=O)N1c1nc2ccccc2s1 [3a, 2-(1,3-benzothiazol-2-yl)-1H-isoindole-1,3(2H)-dione] | performed as antiangiogenic agents | – | –
128 (≈ 429 µM) | 71.2 ± 1 | – | O=C1c2ccccc2C(=O)N1c1nc2ccc(F)cc2s1 [3b, 2-(6-Fluoro-1,3-benzothiazol-2-yl)-1H-isoindole-1,3(2H)-dione] | – | – | –
128 (≈ 367 µM) | > 500 | did not possess any activity | O=C1c2ccccc2C(=O)N1c1nc2ccc(C(F)(F)F)cc2s1 [3c, 2-[6-Trifluoromethyl-1,3-benzothiazol-2-yl]-1H-isoindole-1,3(2H)-dione] | – | – | –
> 512 | 202.6 ± 0.6 | – | Cc1ccc2nc(N3C(=O)c4ccccc4C3=O)sc2c1 [3d, 2-[6-Methyl-1,3-benzothiazol-2-yl]-1H-isoindole-1,3(2H)-dione] | performed as antiangiogenic agents | – | –
64 (≈ 206 µM) | 102.8 ± 0.9 | – | COc1ccc2nc(N3C(=O)c4ccccc4C3=O)sc2c1 [3e, 2-[6-Methoxy-1,3-benzothiazol-2-yl]-1H-isoindole-1,3(2H)-dione] | – | – | –

SMILES | MIC [1] [µg/mL] | IC50 [3] [µM] | IC50 MDA-MB-231 ([3]; 72 h exposure) | antiangiogenic activity [2] | MIC [4] [µg/mL] | MIC [5] [µg/mL]
COc1cc2nc(N3C(=O)c4ccccc4C3=O)sc2cc1OC [3f, 2-[5,6-Dimethoxy-1,3-benzothiazol-2-yl]-1H-isoindole-1,3(2H)-dione] | 64 (≈ 188 µM) | 49.6 ± 1 | – | – | 64 (≈ 188 µM) | 32 to 64 (≈ 94 to 188 µM)
O=C1c2ccccc2C(=O)N1c1nc2ccc(O)cc2s1 [3g, 2-[6-Hydroxy-1,3-benzothiazol-2-yl]-1H-isoindole-1,3(2H)-dione] | 64 (≈ 216 µM) | 63.3 ± 0.7 | – | – | 64 (≈ 216 µM) | 32 to 64 (≈ 108 to 216 µM)
O=C1c2ccccc2C(=O)N1c1nc2ccc(Oc3ccccc3)cc2s1 [3h, 2-[6-Phenoxy-1,3-benzothiazol-2-yl]-1H-isoindole-1,3(2H)-dione] | 32 (≈ 85.9 µM) | 14 ± 0.5 | – | – | 32 (≈ 85.9 µM) | –
